Reference: US20120122896A1, “2,1,3-BENZOXADIAZOL DERIVATIVES FOR THE INHIBITION OF INFLUENZA A AND B VIRUS AND RESPIRATORY SYNCYTIAL VIRUS REPLICATION” (PIKE PHARMA GMBH, priority 2009, published 2012)
Read-outs that look alike come from different tables or passages of the source.

Tests used:
HA-tagged PA from FluB = assay: competitive ELISA, PB1 peptide / PA of FluB; type: binding, influenza B virus; conditions: competitor peptides 0.048 to 3000 nM; […]; standard deviation in parenthesis; * highest concentration used
RSV (Long strain) = assay: RSV induced cell death reduction in HEp-2 cells; type: cell-based, respiratory syncytial virus; conditions: for inhibition at 11 µM: read-out: RSV activity, Maximum inhibition; for RSV activity, Maximum inhibition (in words): serial dilution 100 to 0.14 μM, 72 h
[1] = test system: influenza virus (A/WSN/33); assay: plaque reduction assay, influenza virus in MDCK cells; type: cell-based
[2] = biological target: interaction between PB1 and PA (Influenza A virus, UniProt P03433); assay: biochemical; type: binding; conditions: for IC50: calculated from inhibition at maximum obtainable concentration where solubility too low, read-out: IC50 [μM] (ELISA)
[3] = human respiratory syncytial virus, HEp-2

| Compound | IC50 (HA-tagged PA from FluB) [nM] | inhibition of the replication of influenza virus, particularly influenza A (summary in words) [1] | IC50 [2] [µM] | Active in ELISA ([2]; prescreening) | RSV activity, Maximum inhibition (in words) (RSV (Long strain)) | also measured |
| --- | --- | --- | --- | --- | --- | --- |
| MDVNPFLLFLKVPAQ [PB11-15 AT5F] | 750 | – | – | – | – | IC50 (HA-tagged PA of FluA; read-out: IC50 (nM) PA (FluA)): 2.84 nM |
| MDVNPTLLFLKVPAQ [PB11-15 A] | > 3000 | – | – | – | – | – |
| O=[N+]([O-])c1ccc(Sc2ccc(F)cc2)c2nonc12 [PKE079, 4-[(4-fluorophenyl)thio]-7-nitro-2,1,3-benzoxadiazole] | – | effectively inhibited | 125 | Yes | – | inhibition of RSV replication (summary in words) (RSV (Long strain)): effective; IC50 (RSV (Long strain); [3]): 7 µM; inhibition at 11 µM (RSV (Long strain); [3]): 53% |
| MDVNPTLLFLK [Compound 1-11] | – | – | – | – | – | IC50 (HA-tagged PA of FluA; read-out: IC50 (nM) of FluA-derived PB1 peptides (truncations)): 900 nM |
| O=[N+]([O-])c1ccc(SCc2ccccc2)c2nonc12 [PKE107, 4-nitro-7-(phenylmethylsulfanyl)-2,1,3-benzoxadiazole] | – | effectively inhibited | 125 | Yes | inactive | – |
| O=[N+]([O-])c1ccc(Sc2ncnc3c2ncn3C2OC(CO)C(O)C2O)c2nonc12 (stereo not shown) [PKE137, 2-(hydroxymethyl)-5-[6-[(4-nitro-2,1,3-benzoxadiazol-7-yl)sulfanyl]purin-9-yl]oxolane-3,4-diol] | – | effectively inhibited | 200 | Yes | inactive | – |
| MDVNPWLLFLKVPAQ [PB11-15 AT6W] | 628 | – | – | – | – | IC50 (HA-tagged PA of FluA; read-out: IC50 (nM) PA (FluA)): 3.4 nM |
| MDVNPYLLFLKVPAQ [PB11-15 AT5Y] | 107 | – | – | – | – | IC50 (HA-tagged PA of FluA; read-out: IC50 (nM) PA (FluA)): 21.6 nM |
| Nc1nc(Sc2ccc([N+](=O)[O-])c3nonc23)c2ncn(C3OC(CO)C(O)C3O)c2n1 (stereo not shown) [PKE138, 2-[2-amino-6-[(4-nitro-2,1,3-benzoxadiazol-7-yl)sulfanyl]purin-9-yl]-5-(hydroxymethyl)oxolane-3,4-diol] | – | effectively inhibited | 250 | Yes | inactive | – |
| CCN(CC)c1cc(Cl)c2nonc2c1[N+](=O)[O-] [PKE191, 7-chloro-N,N-diethyl-4-nitro-2,1,3-benzoxadiazol-5-amine] | – | – | – | No | – | inhibition of RSV replication (summary in words) (RSV (Long strain)): effective; inhibition at 11 µM (RSV (Long strain); [3]): 20% |
| COc1ccc(CNc2ccc([N+](=O)[O-])c3nonc23)cc1 [PKE130, N-[(4-methoxyphenyl)methyl]-4-nitro-2,1,3-benzoxadiazol-7-amine] | – | – | – | – | – | inhibition of RSV replication (summary in words) (RSV (Long strain)): effective; inhibition at 33 µM (RSV (Long strain); human respiratory syncytial virus, HEp-2, read-out: RSV activity, Maximum inhibition): 48%; Active in ELISA [2]: No |
| Cc1ccc(CSc2ccc([N+](=O)[O-])c3nonc23)cc1 [PKE077, 4-[(4-methylbenzyl)thio]-7-nitro-2,1,3-benzoxadiazole] | – | – | > 1000 | Yes | inactive | inhibition at 1000 µM ([2]; highest concentration used, 1000 μM, read-out: Max. Inhibition (ELISA) at 1000 μM): 33% |
| O=[N+]([O-])c1ccc(S(=O)(=O)Cc2ccccc2)c2nonc12 [PKE108, 4-nitro-7-(phenylmethylsulfonyl)-2,1,3-benzoxadiazole] | – | effectively inhibited | 500 | Yes | inactive | – |
